Each structure is given as a SMILES string.

The assay relates to A549 cells. Description: Cell migration assay (24-well transwell, laminin). In kind it is cell-based, human. The settings on record: Homo sapiens, A549, 6 h, laminin 10 μg/mL in lower well, test compounds 0.39˜100 μM, migrated cells counted, read-out: Inhibitory activity against cell migration. On the procedure:
Cell migration was measured with a 24-well transwell having a polycarbonate membrane (8.0 μm pore size, Costar) at the bottom of the upper chamber. Each lower well was treated with laminin (10 μg/mL) and test compounds in predetermined concentrations (0.39˜100 μM) along with a serum-free RPMI1640 medium. A549 cells (Korean Cell Line Bank) were suspended in a serum-free RPMI1640 medium at a concentration of 1×10^6 cells/mL and then the test compounds were added thereto at the indicated concentrations. Each resulting solution (100 μL) was added to the upper chamber. The cells were cultured at 37° C. for 6 hours in a CO2 incubator. The upper chamber was taken out and then the cells were fixed with PBS containing 70% methyl alcohol for 10 minutes, followed by washing with PBS twice. The cells were stained with hematoxylin (Sigma) for 10 minutes and then washed with distilled water. The non-migrated cells were removed from the upper portion of the polycarbonate membrane with a cotton swab. The membranes were excised and separated from the chamber, and then mounted to a slide using a gel mount reagent (Biomeda, USA). The migrated cells (attached to the lower face of the membrane) were counted at three randomly selected sites under a microscope (×20). The cell counting was performed with the Image J program. From the counted cell numbers, each IC50 value was calculated by non-linear regression curve fit using the “GraphPad Prism” program.
The cells are pulled by laminin residing in the lower chamber and then passed through the polycarbonate membrane, so as to attach to the lower face of the membrane.
As for `CCC(c1ccc(C(=O)O)cc1)N(CCc1ccc(OC)c(F)c1F)c1nc2cccc(F)c2s1` (stereo not drawn) [Example 68, 4-(1-{[2-(2,3-difluoro-4-methoxyphenyl)ethyl](7-fluorobenzo[d]thiazol-2-yl)amino}propyl)benzoic acid], the IC50 is less than 1000 nM.

As to `CCC(c1ccc(C(=O)O)cc1)N(CCc1cc(F)c(OC)cc1F)c1nc2cccc(F)c2s1` (stereo not drawn) [Example 69, 4-(1-{[2-(2,5-difluoro-4-methoxyphenyl)ethyl](7-fluorobenzo[d]thiazol-2-yl)amino}propyl)benzoic acid], the IC50 is greater than 10000 nM.

Take `CCC(c1ccc(C(=O)O)cc1)N(CCc1ccc(OC)cc1Cl)c1nc2cccc(F)c2s1` (stereo not drawn) [Example 70, 4-(1-{[2-(2-chloro-4-methoxyphenyl)ethyl](7-fluorobenzo[d]thiazol-2-yl)amino}propyl)benzoic acid]: the IC50 was greater than 10000 nM.

As for `CCC(c1ccc(C(=O)O)cc1)N(CCc1ccc(OC)c(C)c1C)c1nc2cccc(F)c2s1` (stereo not drawn) [Example 71, 4-(1-{(7-fluorobenzo[d]thiazol-2-yl)[2-(4-methoxy-2,3-dimethylphenyl)ethyl]amino}propyl)benzoic acid], the IC50 is greater than 10000 nM.

Consider `CCC(c1ccc(C(=O)O)cc1)N(CCc1cc(C)c(OC)cc1C)c1nc2cccc(F)c2s1` (stereo not drawn) [Example 72, 4-(1-{(7-fluorobenzo[d]thiazol-2-yl)[2-(4-methoxy-2,5-dimethylphenyl)ethyl]amino}propyl)benzoic acid], for which the IC50 is greater than 10000 nM.

`CCC(c1ccc(C(=O)O)cc1)N(CCc1ccc(OC)c(C)c1)c1nc2cccc(F)c2s1` (stereo not drawn) [Example 73, 4-(1-{(7-fluorobenzo[d]thiazol-2-yl)[2-(4-methoxy-3-methylphenyl)ethyl]amino}propyl)benzoic acid]: the IC50 is greater than 10000 nM.

Regarding `CCC(c1ccc(C(=O)O)cc1)N(CCc1ccc(OC)cc1C)c1nc2cccc(F)c2s1` (stereo not drawn) [Example 74, 4-(1-{(7-fluorobenzo[d]thiazol-2-yl)[2-(4-methoxy-2-methylphenyl)ethyl]amino}propyl)benzoic acid], the IC50 is greater than 10000 nM.

On to `CCC(c1ccc(C(=O)O)cc1)N(CCc1c(F)cc(OC)cc1F)c1nc2cccc(F)c2s1` (stereo not drawn) [Example 75, 4-(1-{[2-(2,6-difluoro-4-methoxyphenyl)ethyl](7-fluorobenzo[d]thiazol-2-yl)amino}propyl)benzoic acid], for which the IC50 was greater than 10000 nM.

`CCC(c1ccc(C(=O)O)cc1)N(CCc1cc(C(C)C)c(OC)cc1C)c1nc2cccc(F)c2s1` (stereo not drawn) [Example 76, 4-{1-[(7-fluorobenzo[d]thiazol-2-yl){2-[4-methoxy-2-methyl-5-(propan-2-yl)phenyl]ethyl}amino]propyl}benzoic acid]: the IC50 was greater than 10000 nM.

`COc1ccc(CCN(Cc2ccc(C(=O)O)c(O)c2)c2nc3cccc(F)c3s2)cc1` [Example 77, 4-({(7-fluorobenzo[d]thiazol-2-yl)[2-(4-methoxyphenyl)ethyl]amino}methyl)-2-hydroxybenzoic acid]: the IC50 is less than 1000 nM.

Consider `COc1ccc(CCN(Cc2ccc(C(=O)O)cc2Cl)c2nc3cccc(F)c3s2)cc1` [Example 78, 3-chloro-4-({(7-fluorobenzo[d]thiazol-2-yl)[2-(4-methoxyphenyl)ethyl]amino}methyl)benzoic acid], for which the IC50 was less than 1000 nM.

Consider `COc1ccc(CCN(Cc2ccc(C(=O)O)cc2)c2nc3ccc([N+](=O)[O-])cc3s2)cc1` [Example 79, 4-({[2-(4-methoxyphenyl)ethyl](6-nitro-benzo[d]thiazol-2-yl)amino}methyl)benzoic acid], for which the IC50 is less than 1000 nM.

Take `COc1ccc(CCN(Cc2ccc(C(=O)O)cc2)c2nc3cccc([N+](=O)[O-])c3s2)cc1` [Example 80, 4-({[2-(4-methoxyphenyl)ethyl](7-nitro-benzo[d]thiazol-2-yl)amino}methyl)benzoic acid]: the IC50 was less than 1000 nM.

On to `COc1ccc(CCN(Cc2ccc(C(=O)O)cc2)c2nc3ccc(N)cc3s2)cc1` [Example 81, 4-({(6-amino-benzo[d]thiazol-2-yl)[2-(4-methoxyphenyl)ethyl]amino}methyl)benzoic acid], for which the IC50 was less than 1000 nM.

Turning to `COc1ccc(CCN(Cc2ccc(C(=O)O)cc2)c2nc3cccc(N)c3s2)cc1` [Example 82, 4-({(7-amino-benzo[d]thiazol-2-yl)[2-(4-methoxyphenyl)ethyl]amino}methyl)benzoic acid], the IC50 is less than 1000 nM.

On to `COc1ccc(CCN(Cc2ccc(C(=O)O)cc2)c2nc3cccc(Cl)c3s2)cc1` [Example 83, 4-({(7-chloro-benzo[d]thiazol-2-yl)[2-(4-methoxyphenyl)ethyl]amino}methyl)benzoic acid], for which the IC50 was less than 1000 nM.

In the case of `COc1ccc(CCN(Cc2ccc(C(=O)O)cc2)c2nc3ccc(Cl)cc3s2)cc1` [Example 84, 4-({(6-chloro-benzo[d]thiazol-2-yl)[2-(4-methoxyphenyl)ethyl]amino}methyl)benzoic acid], the IC50 is less than 1000 nM.

As for `COc1ccc(CCN(Cc2ccc(C(=O)O)cc2)c2nc3cc(Cl)ccc3s2)cc1` [Example 85, 4-({(5-chloro-benzo[d]thiazol-2-yl)[2-(4-methoxyphenyl)ethyl]amino}methyl)benzoic acid], the IC50 was less than 1000 nM.

Consider `COc1ccc(CCN(Cc2ccc(C(=O)O)cc2)c2nc3cc(F)c(F)cc3s2)cc1` [Example 86, 4-({(5,6-difluorobenzo[d]thiazol-2-yl)[2-(4-methoxyphenyl)ethyl]amino}methyl)benzoic acid], for which the IC50 is less than 1000 nM.

For the compound `COc1ccc(CCN(Cc2ccc(C(=O)O)cc2)c2nc3cc(F)c(F)c(F)c3s2)cc1` [Example 87, 4-{[[2-(4-methoxyphenyl)ethyl](5,6,7-trifluorobenzo[d]thiazol-2-yl)amino]methyl}benzoic acid], the IC50 was less than 1000 nM.

With `COc1ccc(CCN(Cc2ccc(C(=O)O)cc2)c2nc3ccc(Cl)c(F)c3s2)cc1` [Example 88, 4-({(6-chloro-7-fluorobenzo[d]thiazol-2-yl)[2-(4-methoxyphenyl)ethyl]amino}methyl)benzoic acid], the IC50 was less than 1000 nM.

Turning to `COc1ccc(CCN(Cc2ccc(C(=O)O)cc2)c2nc3cccc(C(F)(F)F)c3s2)cc1` [Example 89, 4-{[[2-(4-methoxyphenyl)ethyl](7-trifluoromethyl-benzo[d]thiazol-2-yl)amino]methyl}benzoic acid], the IC50 is less than 1000 nM.

With `COc1ccc(CCN(Cc2ccc(C(=O)O)cc2)c2nc3ccc(F)c(F)c3s2)cc1` [Example 90, 4-({(6,7-difluorobenzo[d]thiazol-2-yl)-[2-(4-methoxyphenyl)ethyl]amino}methyl)benzoic acid], the IC50 is less than 1000 nM.

On to `COc1ccc(CCN(Cc2ccc(C(=O)O)cc2)c2nc3cc(Br)ccc3s2)cc1` [Example 91, 4-({(5-bromo-benzo[d]thiazol-2-yl)[2-(4-methoxyphenyl)ethyl]amino}methyl)benzoic acid], for which the IC50 is less than 1000 nM.

In the case of `COc1ccc(CCN(Cc2ccc(C(=O)O)cc2)c2nc3ccc(F)cc3s2)cc1` [Example 92, 4-({(6-fluorobenzo[d]thiazol-2-yl)[2-(4-methoxyphenyl)ethyl]amino}methyl)benzoic acid], the IC50 was less than 1000 nM.

For the compound `COc1ccc(CCN(Cc2ccc(C(=O)O)cc2)c2nc3cc(F)cc(F)c3s2)cc1` [Example 93, 4-({(5,7-difluorobenzo[d]thiazol-2-yl)[2-(4-methoxyphenyl)ethyl]amino}methyl)benzoic acid], the IC50 is less than 1000 nM.

For `COc1ccc(CCN(Cc2ccc(C(=O)O)cc2)c2nc3ccc(C)c(F)c3s2)cc1` [Example 94, 4-({(7-fluoro-6-methyl-benzo[d]thiazol-2-yl)[2-(4-methoxyphenyl)ethyl]amino}methyl)benzoic acid], the IC50 was less than 1000 nM.

As for `COc1ccc(CCN(Cc2ccc(C(=O)O)cc2)c2nc3c(F)cc(F)cc3s2)cc1` [Example 95, 4-({(4,6-difluorobenzo[d]thiazol-2-yl)[2-(4-methoxyphenyl)ethyl]amino}methyl)benzoic acid], the IC50 is less than 1000 nM.

Regarding `COc1ccc(CCN(Cc2ccc(C(=O)O)cc2)c2nc3cccc(C)c3s2)cc1` [Example 96, 4-({[2-(4-methoxyphenyl)ethyl](7-methyl-benzo[d]thiazol-2-yl)amino}methyl)benzoic acid], the IC50 is greater than 10000 nM.

`COc1ccc(CCN(Cc2ccc(C(=O)O)cc2)c2nc3ccc(C)cc3s2)cc1` [Example 97, 4-({[2-(4-methoxyphenyl)ethyl](6-methyl-benzo[d]thiazol-2-yl)amino}methyl)benzoic acid]: the IC50 is greater than 10000 nM.

Consider `COc1ccc(CCN(Cc2ccc(C(=O)O)cc2)c2nc3cc(C)ccc3s2)cc1` [Example 98, 4-({[2-(4-methoxyphenyl)ethyl](5-methyl-benzo[d]thiazol-2-yl)amino}methyl)benzoic acid], for which the IC50 is greater than 10000 nM.

As for `COc1ccc(CCN(c2nc3cc(F)cc(F)c3s2)C(C)c2ccc(C(=O)O)cc2)cc1` (stereo not drawn) [Example 99, 4-(1-{(5,7-difluorobenzo[d]thiazol-2-yl)[2-(4-methoxyphenyl)ethyl]amino}ethyl)benzoic acid], the IC50 was greater than 10000 nM.

With `COc1ccc(CCN(c2nc3cc(F)c(F)cc3s2)C(C)c2ccc(C(=O)O)cc2)cc1` (stereo not drawn) [Example 100, 4-(1-{(5,6-difluorobenzo[d]thiazol-2-yl)[2-(4-methoxyphenyl)ethyl]amino}ethyl)benzoic acid], the IC50 is greater than 10000 nM.

The record behind these values is US10383859B2, “Benzo[d]thiazole derivative or salt thereof, and pharmaceutical composition including same” (Yuhan Corporation, priority 2016, dated 2019).
